In ChEMBL document CHEMBL1148054, “Chemical and bioactive constituents from Zanthoxylum simulans” (J Nat Prod, 1994):
The source made the active and inactive calls.

How the values were obtained:
Format in all cases: functional
Conditions in all cases: Oryctolagus cuniculus
Platelet [1] = assay: Antiplatelet activity against rabbit platelet assessed as inhibition of arachidonic acid-induced platelet aggregation at 100 ug/ml
Platelet [2] = assay: Antiplatelet activity against rabbit platelet assessed as inhibition of collagen-induced platelet aggregation at 100 ug/ml
Platelet [3] = assay: Antiplatelet activity against rabbit platelet assessed as inhibition of platelet activating factor-induced platelet aggregation at 100 ug/ml

Measured: Activity

COc1ccc2c(c1OC)C(CC1(C)C=Cc3c(c4cccc(OC)c4n(C)c3=O)O1)N(C)c1c-2ccc2cc3c(cc12)OCO3 (stereo unspecified)
inactive: all assays above

Oc1cnc2c(ccc3cc4c(cc32)OCO4)c1
inactive: all assays above
